Measured values reported in patent US20080096894A1, “Anti-Bacterial Compounds” (ASTON UNIVERSITY, priority 2005, published 2008).
In brackets after ≈: the same amount, converted by molar mass. Read-outs that look alike come from different tables or passages of the source.

How the values were obtained:
Experiment in all cases: MIC, agar dilution, multipoint inoculator
S. marcesens = assay type: cell-based, Serratia marcescens; conditions: S. marcesens 4444, upper value of MIC reading
Method: (§1) This activity was measured using a multipoint inoculator method as follows. The MIC for each compound was measured using an agar dilution method (Onda, H., et al., Int. J. Antimicrob. Agents. 18, 263 (2001)) (Mueller Hinton agar) by means of a multipoint inoculator delivering 10^4 colony forming units per spot.

K. pneumoniae = assay type: cell-based, Klebsiella pneumoniae; conditions: K. pneumoniae 327, upper value of MIC reading
Method: as §1

S. epidemisis = assay type: cell-based, Staphylococcus epidermidis; conditions: upper value of MIC reading
How it was run: (§2)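 Each strain was spot-inoculated (10^4 CFU) onto Mueller Hinton agar plates carrying compound dilutions, using a multipoint device, and the MIC was recorded.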

S. aureus = assay type: cell-based, Staphylococcus aureus; conditions: upper value of MIC reading
How it was run: as §2

MRSA = assay type: cell-based, methicillin-resistant Staphylococcus aureus; conditions: for MIC: upper value of MIC reading; for MRSA MIC range: panel of ten MRSA strains (clinical isolates)
How it was run: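 Agar dilution MIC on Mueller Hinton agar, multipoint inoculator delivering 10^4 colony forming units per spot. MRSA values are ranges across ten clinical MRSA strains; S. aureus NCTC 6571 as reference strain.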

S. aboni = assay type: cell-based; conditions: S. aboni NCTC 6017; upper value of MIC reading
How it was run: as §2

B. bronchiseptica = assay type: cell-based; conditions: B. bronchiseptica NCTC 8344, upper value of MIC reading
How it was run: as §2

E. faecalis = assay type: cell-based; conditions: upper value of MIC reading
How it was run: as §2

S. maltophilia = assay type: cell-based; conditions: S. maltophilia NCTC 10257, upper value of MIC reading
How it was run: as §2

S. haemolyticus = assay type: cell-based; conditions: S. haemolyticus Isolate 1, upper value of MIC reading
How it was run: as §2

E. cloacae = assay type: cell-based, Enterobacter cloacae; conditions: E. cloacae NCTC 11582, upper value of MIC reading
Method: as §1

E. coli = assay type: cell-based, Escherichia coli; conditions: Escherichia coli, 18 h, upper value of MIC reading
Method: as §1

P. auriginosa = assay type: cell-based, Pseudomonas aeruginosa; conditions: P. auriginosa NCTC 6749, upper value of MIC reading
Method: as §1

E. faecium = assay type: cell-based, Enterococcus faecium; conditions: upper value of MIC reading
How it was run: as §2

Work on `Cc1onc(-c2c(F)cccc2Cl)c1C(=O)N[C@@H]1C(=O)N2[C@@H]1SC(C)(C)[C@@H]2C(=O)O` [Fluclox., Flucloxacillin, reference compound] yielded an MIC (S. marcesens; Serratia marcescens, 18 h, read-out: MIC) of over 16 µg/mL, an MIC (K. pneumoniae; Klebsiella pneumoniae, 18 h, read-out: MIC) of over 16 µg/mL and an MIC (S. epidemisis; Staphylococcus epidermidis, 18 h, S. epidemisis Isolate 1, read-out: MIC) of over 16 µg/mL. The MIC (S. epidemisis; Staphylococcus epidermidis, NCTC11047, 18 h, S. epidemisis NCTC 11047, read-out: MIC) was 0.05 µg/mL (≈ 0.11 µM), the MIC (S. aureus; Staphylococcus aureus, 18 h, S. aureus Cowan 1, read-out: MIC) was 0.05 µg/mL (≈ 0.11 µM) and the MIC (S. aureus; Staphylococcus aureus, NCTC6571, 18 h, S. aureus NCTC 6571, read-out: MIC) was 0.05 µg/mL (≈ 0.11 µM). It also gave an MIC (S. aureus; Staphylococcus aureus, NCTC10788, 18 h, S. aureus NCTC 10788, read-out: MIC) of 0.05 µg/mL (≈ 0.11 µM), an MIC (MRSA; Staphylococcus aureus, 18 h, MRSA Isolate 1, read-out: MIC) of 0.05 µg/mL (≈ 0.11 µM) and an MIC (MRSA; Staphylococcus aureus, 18 h, MRSA Isolate 2, read-out: MIC) of 8 µg/mL (≈ 17.6 µM). It also gave an MIC (MRSA; Staphylococcus aureus, 18 h, MRSA Isolate 3, read-out: MIC) of 8 µg/mL (≈ 17.6 µM), an MIC (MRSA; Staphylococcus aureus, 18 h, MRSA Isolate 4, read-out: MIC) of 16 µg/mL (≈ 35.3 µM) and an MIC (MRSA; Staphylococcus aureus, 18 h, MRSA Isolate 5, read-out: MIC) of 0.05 µg/mL (≈ 0.11 µM). It also gave an MIC (MRSA; Staphylococcus aureus, 18 h, MRSA Isolate 6, read-out: MIC) of 0.25 µg/mL (≈ 0.551 µM), an MIC (MRSA; Staphylococcus aureus, 18 h, MRSA Isolate 7, read-out: MIC) of 0.25 µg/mL (≈ 0.551 µM) and an MIC (MRSA; Staphylococcus aureus, 18 h, MRSA Isolate 8, read-out: MIC) of 8 µg/mL (≈ 17.6 µM). It also gave an MIC (MRSA; Staphylococcus aureus, 18 h, MRSA Isolate 9, read-out: MIC) of 8 µg/mL (≈ 17.6 µM), an MIC (MRSA; Staphylococcus aureus, 18 h, MRSA Isolate 10, read-out: MIC) of 0.25 µg/mL (≈ 0.551 µM) and an MIC (S. aboni) of 0.05 µg/mL (≈ 0.11 µM). It also gave an MIC (B. bronchiseptica; Bordetella bronchiseptica, NCTC8344, 18 h, read-out: MIC) of over 16 µg/mL, an MIC (E. faecalis; Enterococcus faecalis, 18 h, E. faecalis EBH1, read-out: MIC) of 0.5 µg/mL (≈ 1.1 µM) and an MIC (E. faecalis; Enterococcus faecalis, 18 h, E. faecalis Isolate 1, read-out: MIC) of 1 µg/mL (≈ 2.2 µM). It also gave an MIC (E. faecalis; Enterococcus faecalis, 18 h, E. faecalis Isolate 2, read-out: MIC) of 0.5 µg/mL (≈ 1.1 µM), an MIC (E. faecalis; Enterococcus faecalis, 18 h, E. faecalis Isolate 4, read-out: MIC) of 1 µg/mL (≈ 2.2 µM) and an MIC (E. faecalis; Enterococcus faecalis, 18 h, E. faecalis Isolate 5, read-out: MIC) of 1 µg/mL (≈ 2.2 µM). For the same molecule, the MIC (E. faecalis; Enterococcus faecalis, NCTC5957, 18 h, E. faecalis NCTC 5957, read-out: MIC) was 1 µg/mL (≈ 2.2 µM), the MIC (S. maltophilia; Stenotrophomonas maltophilia, NCTC10257, 18 h, read-out: MIC) was 16 µg/mL (≈ 35.3 µM) and the MIC (S. haemolyticus; Staphylococcus haemolyticus, 18 h, read-out: MIC) was 0.5 µg/mL (≈ 1.1 µM). For the same molecule, the MIC (E. cloacae; Enterobacter cloacae, NCTC11582, 18 h, read-out: MIC) was over 16 µg/mL, the MIC (E. coli; E. coli W3110R+) was over 16 µg/mL and the MIC (E. coli; E. coli W3110R−) was over 16 µg/mL. It also gave an MIC (P. auriginosa; Pseudomonas aeruginosa, NCTC6749, 18 h, read-out: MIC) of 8 µg/mL (≈ 17.6 µM), an MIC (E. faecium; Enterococcus faecium, 18 h, E. faecium ACTCC 10541, read-out: MIC) of 1 µg/mL (≈ 2.2 µM) and an MIC (E. faecium; Enterococcus faecium, NCTC7171, 18 h, E. faecium NCTC 7171, read-out: MIC) of 1 µg/mL (≈ 2.2 µM).
Work on `O=[N+]([O-])c1cc(Br)cc(C=NNc2ccccn2)c1O` [HDcl] yielded an MIC (S. marcesens) of 256 µg/mL (≈ 759 µM), an MIC (K. pneumoniae) of 128 µg/mL (≈ 380 µM) and an MIC (S. epidemisis; S. epidemisis Isolate 1) of 128 µg/mL (≈ 380 µM). It also gave an MIC (S. epidemisis; S. epidemisis NCTC 11047) of 64 µg/mL (≈ 190 µM), an MIC (S. aureus; S. aureus Cowan 1) of 128 µg/mL (≈ 380 µM) and an MIC (S. aureus; S. aureus NCTC 6571) of 128 µg/mL (≈ 380 µM). The MIC (S. aureus; S. aureus NCTC 10788) was 128 µg/mL (≈ 380 µM), the MIC (MRSA; MRSA Isolate 1, in µg/mL) was 128 and the MIC (MRSA; MRSA Isolate 2, in µg/mL) was 128. The MIC (MRSA; MRSA Isolate 3, in µg/mL) was 128, the MIC (MRSA; MRSA Isolate 4, in µg/mL) was 128 and the MIC (MRSA; MRSA Isolate 5, in µg/mL) was 128. The MIC (MRSA; MRSA Isolate 6, in µg/mL) was 128, the MIC (MRSA; MRSA Isolate 7, in µg/mL) was 128 and the MIC (MRSA; MRSA Isolate 8, in µg/mL) was 128. The MIC (MRSA; MRSA Isolate 9, in µg/mL) was 128, the MIC (MRSA; MRSA Isolate 10, in µg/mL) was 128 and the “MRSA MIC range” value (MRSA) was 64 to 128 µg/mL. The MIC (S. aboni) was 128 µg/mL (≈ 380 µM), the MIC (B. bronchiseptica) was 128 µg/mL (≈ 380 µM) and the MIC (E. faecalis; E. faecalis EBH1) was 128 µg/mL (≈ 380 µM). For the same molecule, the MIC (E. faecalis; E. faecalis Isolate 1) was 128 µg/mL (≈ 380 µM), the MIC (E. faecalis; E. faecalis Isolate 2) was 32 µg/mL (≈ 94.9 µM) and the MIC (E. faecalis; E. faecalis Isolate 3) was 16 µg/mL (≈ 47.5 µM). It also gave an MIC (E. faecalis; E. faecalis Isolate 4) of 128 µg/mL (≈ 380 µM), an MIC (E. faecalis; E. faecalis Isolate 5) of 128 µg/mL (≈ 380 µM) and an MIC (E. faecalis; E. faecalis NCTC 5957) of 128 µg/mL (≈ 380 µM). The MIC (S. maltophilia) was 128 µg/mL (≈ 380 µM), the MIC (S. haemolyticus) was 128 µg/mL (≈ 380 µM) and the MIC (E. cloacae) was 256 µg/mL (≈ 759 µM). For the same molecule, the MIC (P. auriginosa) was 128 µg/mL (≈ 380 µM), the MIC (E. faecium; E. faecium ACTCC 10541) was 128 µg/mL (≈ 380 µM) and the MIC (E. faecium; E. faecium NCTC 7171) was 128 µg/mL (≈ 380 µM).
`Oc1cc(O)c(C=NNc2ccccn2)c(O)c1` [HDcd] gave an MIC (S. marcesens) of 256 µg/mL (≈ 1040 µM), an MIC (K. pneumoniae) of 256 µg/mL (≈ 1040 µM) and an MIC (S. epidemisis; S. epidemisis Isolate 1) of 128 µg/mL (≈ 522 µM). The MIC (S. epidemisis; S. epidemisis NCTC 11047) was 128 µg/mL (≈ 522 µM), the MIC (S. aureus; S. aureus Cowan 1) was 256 µg/mL (≈ 1040 µM) and the MIC (S. aureus; S. aureus NCTC 6571) was 256 µg/mL (≈ 1040 µM). It also gave an MIC (S. aureus; S. aureus NCTC 10788) of 256 µg/mL (≈ 1040 µM), an MIC (MRSA; MRSA Isolate 1, in µg/mL) of 256 and an MIC (MRSA; MRSA Isolate 2, in µg/mL) of 256. For the same molecule, the MIC (MRSA; MRSA Isolate 3, in µg/mL) was 256, the MIC (MRSA; MRSA Isolate 4, in µg/mL) was 256 and the MIC (MRSA; MRSA Isolate 5, in µg/mL) was 256. It also gave an MIC (MRSA; MRSA Isolate 6, in µg/mL) of 256, an MIC (MRSA; MRSA Isolate 7, in µg/mL) of 256 and an MIC (MRSA; MRSA Isolate 8, in µg/mL) of 256. For the same molecule, the MIC (MRSA; MRSA Isolate 9, in µg/mL) was 256, the MIC (MRSA; MRSA Isolate 10, in µg/mL) was 256 and the “MRSA MIC range” value (MRSA) was 128 to 256 µg/mL. The MIC (S. aboni) was 128 µg/mL (≈ 522 µM), the MIC (B. bronchiseptica) was 256 µg/mL (≈ 1040 µM) and the MIC (E. faecalis; E. faecalis EBH1) was 256 µg/mL (≈ 1040 µM). It also gave an MIC (E. faecalis; E. faecalis Isolate 1) of 128 µg/mL (≈ 522 µM), an MIC (E. faecalis; E. faecalis Isolate 2) of 128 µg/mL (≈ 522 µM) and an MIC (E. faecalis; E. faecalis Isolate 3) of 128 µg/mL (≈ 522 µM). For the same molecule, the MIC (E. faecalis; E. faecalis Isolate 4) was 256 µg/mL (≈ 1040 µM), the MIC (E. faecalis; E. faecalis Isolate 5) was 128 µg/mL (≈ 522 µM) and the MIC (E. faecalis; E. faecalis NCTC 5957) was 256 µg/mL (≈ 1040 µM). The MIC (S. maltophilia) was 128 µg/mL (≈ 522 µM), the MIC (S. haemolyticus) was 128 µg/mL (≈ 522 µM) and the MIC (E. cloacae) was 256 µg/mL (≈ 1040 µM). For the same molecule, the MIC (P. auriginosa) was 256 µg/mL (≈ 1040 µM), the MIC (E. faecium; E. faecium ACTCC 10541) was 256 µg/mL (≈ 1040 µM) and the MIC (E. faecium; E. faecium NCTC 7171) was 256 µg/mL (≈ 1040 µM).
